| melting point [°C] | Compound |
| --- | --- |
| 174 to 177 | O=S(CCCCCOc1ccc(C2=C(c3ccccc3)CCCc3cc(O)ccc32)cc1)Cc1cccs1 (stereo not given) |
| 166 to 167 | CCCn1c(-c2ccccc2)cc(=O)c(C(=O)O)c1-c1ccccc1 |
| 83 to 84 | Cc1cc(C(C)(C)C)c(O[Si](C)(C)N=C=S)c(C(C)(C)C)c1 |
| 146 to 148 | S=C(NCCN(Cc1ccc(Cl)c(Cl)c1)c1ccc(Br)cn1)Nc1ccc(N2CCCCC2)cc1 |
| 52 to 53 | CCCNC(=O)C(C)c1nc(CC)no1 (stereo not given) |
| 189 to 190 | Nc1ncc(-c2cccc3ccc(Br)cc23)o1 |
| 195 to 197 | COc1cc2c(cc1Cl)C(=O)Cc1ccc(F)cc1S2 |
| 87.5 to 89.5 | O=C(CC1CSCCC1=O)c1ccc(Br)cc1 (stereo not given) |
| 96 to 98 | O=[N+]([O-])c1ccc(O)c(C=NCCC(F)=C(F)F)c1 |
| 129 to 131 | CC(C)(C)OC(=O)N1CCN(C(c2ccccc2)c2ccccc2)CC1 |
| 219 to 222 | Cc1ccc2c(c1)N(CC(=O)c1ccccc1C)C(=O)C(NC(=O)Nc1cccc(C(=O)O)c1)CN2C(=O)c1cccs1 (stereo not given) |
| 85 to 86 | CCc1cccc(C(O)c2nc(OC)cc(OC)n2)c1N (stereo not given) |
| 84 to 85 | CCc1c(OC)cc(C2CN(C)CCC2=O)cc1OC (stereo not given) |
| 250 to 251 | O=C(O)CN1CCC(n2nc(-c3c(-c4ccccc4)nn4ccccc34)ccc2=O)C1=O (stereo not given) |
| 158 to 160 | CCN1CC(OCC=C(C)C)(C(F)(F)F)c2cc(Cl)ccc2NC1=O (stereo not given) |
| 208 to 209 | CCOC(=O)n1nc(-c2cc(C(C)(C)C)c(O)c(C(C)(C)C)c2)c2ccc(C)nc21 |
| 184 to 190 | N#Cc1c(N2CCc3ccccc3CC2)nc2n(c1=O)CCC2 |
| 112 to 114 | CCOC(=O)C1=C(C)NC(=S)N(C(=O)OCC)C1c1ccccc1C (stereo not given) |
| 198 to 199 | O=C1N(CC2COCCO2)c2ccccc2C12COc1cc3c(cc12)OCCO3 (stereo not given) |
| 195 to 197 | COC(=O)c1ccc(=O)n(CCNC(=O)c2cnccn2)c1 |
| 150 to 151 | O=C(O)C(CC(=O)N1CCOCC1)Oc1ccccc1 (stereo not given) |
| 159 | CS(=O)COC(=O)c1oc(-c2ccccc2)cc(=O)c1Br (stereo not given) |
| 162 | CS(=O)(=O)Nc1cc2c(cc1Oc1ccccc1)C(=O)C(Sc1ccccc1)(Sc1ccccc1)C2 |
| 63 to 65 | COc1cc(C(=O)Cl)ccc1OCc1ccccc1 |
| 193 to 194 | COc1ccnc(CCc2nc3cc(-c4ccoc4)cnc3[nH]2)c1 |

| melting point [°C] | Compound |
| --- | --- |
| 96 to 97 | C=CS(=O)(=O)CCC(F)(F)C(F)(F)C(F)(F)C(F)(F)C(F)(F)C(F)(F)C(F)(F)C(F)(F)F |
| 118 | COc1ccccc1C(=O)NCCc1ccc(-c2ccc(O)cc2)cc1 |
| 249 to 250 | CCc1nc(-c2cc3[nH]c(=O)c(=O)[nH]c3cc2[N+](=O)[O-])c[nH]1 |
| 64.4 | O=C(NCCc1cncn1CCc1ccccc1)[C@H]1CN(Cc2ccccc2)CCN1C(=O)NC1CCCCC1 |
| 282 to 284 | CC(C)c1nc2cc3c(cc2[nH]1)NC(=O)C3(C)C |
| 130 | O=C(O)CCCn1c(=O)n2n(c1=O)C(C(=O)O)C=CC2 (stereo not given) |
| 127 to 128 | O=C1CN(c2ccccc2)C(=O)N1C(=O)c1ccccc1Oc1ccccc1 |
| 166 to 167 | CS(=O)(=O)N1CCN(CCC(CS(=O)(=O)c2ccc(Oc3ccc(OC(F)(F)F)cc3)cc2)N(O)C=O)CC1 (stereo not given) |
| 255 to 257 | O=C1Nc2ccccc2C12COc1c(Cl)cc3c(c12)OCCO3 (stereo not given) |
| 115 to 116 | Cc1cc(O)c(S(=O)Cc2ccccc2F)c(=O)o1 (stereo not given) |
| 165 to 166 | CC(=O)Nc1ccc2c(c1)C(=O)CCC2 |
| 181 to 183 | COc1cc(OC(C)(C)C(=O)O)c(-c2cccs2)cc1/C=C/C(=O)c1ccc(NS(C)(=O)=O)cc1 |
| 82 to 83 | CCOC(=O)Cc1nc(-c2ccccc2)oc1-c1cccs1 |
| 158 to 159 | Cc1ccc(-n2nc3c(cc2=O)CCCc2sc(CO)cc2-3)cc1 |
| 254 to 257 | CC(c1oc2ccccc2c(=O)c1-c1ccccc1)n1cnc2c(N)ncnc21 (stereo not given) |
| 160 to 163 | COc1cccc2c(O)cnnc12 |
| 147 to 148 | Cc1cc(Cl)ccc1OCC(=O)N1CCSC1C(=O)O (stereo not given) |
| 142 to 143 | COC(=O)[C@@H](CCSC)NC(=O)C[C@H]1O[C@H](c2cccc(OC)c2OC)c2cc(Cl)ccc2N(CC(C)(C)CO)C1=O |
| 83 to 84 | COCCCn1c(O)nc2ccc(C(F)(F)F)cc21 |
| 101 to 103 | C=CCOC(=O)Nc1cc(-c2cccc(Cl)c2)sc1C(=O)OC |
| 246 to 248 | Cc1n[nH]c2cc(-c3nn(Cc4oc5ccccc5c(=O)c4-c4cccc(F)c4)c4ncnc(N)c34)ccc12 |
| 123 to 124 | CN1C(c2ccc(N3CCCCC3)cc2)=NC(C(F)(F)F)(C(F)(F)F)C1NC(=O)c1ccc(F)cc1 (stereo not given) |
| 88 to 92 | CC1=CC(C)(C)OC(c2nsc3ccc(-n4c(=O)cc(C(F)(F)F)n(C)c4=O)cc23)C1 (stereo not given) |
| 216 to 218 | CN(Cc1cccc2c1CN(C1CCC(=O)NC1=O)C2=O)C(=O)NC(C)(C)C (stereo not given) |
| 137 to 141 | Cc1cccc(COc2cccc(OCc3ccc4cc(F)cc(F)c4n3)c2)c1OCC(=O)O |

| melting point [°C] | Compound |
| --- | --- |
| 129 to 130 | COc1ccc2c(c1)CCc1c(C#N)cccc1S2 |
| 257 to 258 | NS(=O)(=O)c1ccc(NCC(=O)Nc2ccccc2)cc1 |
| 143 to 146 | CCCNC(=O)C1(CC=Cc2ccc([N+](=O)[O-])cc2)c2ccccc2-c2ccccc21 |
| 87 to 88 | CCCc1c(OCCCOc2ccc(C(=O)OCC)cc2F)ccc(C(C)=O)c1O |
| 160 to 161 | CCCCN(CCCC)C(=O)C1=NN(c2ccccc2)C(C(N)=O)=NN1c1ccccc1 |
| 200 to 203 | CC(C)Cn1c(CN2CCCS2(=O)=O)nc2c(N)nc3c(c21)CCCC3 |
| 173 to 174 | CS(=O)(=O)c1ccc(-c2ccccc2-c2ccc(C(F)(F)F)cc2)cc1 |
| 88 to 89 | Nc1c(OCCCBr)cccc1[N+](=O)[O-] |
| 150 to 151 | COc1ccc(N(C(=O)Nc2cc(C)c(S(=O)(=O)C[N+](=O)[O-])c(C)c2)c2ccc(OC)cc2)cc1 |
| 85 | COC1=C(OC)C(=O)C(CCCCCCCCCCCCCCCCCCCCO)=C(C)C1=O |
| 306 to 307 | COc1cc2cc(C(=O)O)sc(=O)c2cc1OC |
| 203 to 205 | O=C(O)c1cn(C(c2ccccc2)(c2ccccc2)c2ccccc2)c(I)n1 |
| 137 to 140 | Cc1ccc(N(C(=O)CCl)c2c(F)cc(F)cc2Cl)cc1 |
| 155 to 160 | NC(=O)N1CCC(Oc2c(F)c(F)c(F)c(F)c2F)(c2ccccc2)CC1 |
| 214 to 217 | C[C@]1(COc2ccc(N3CCN(Cc4ccc(OC(F)(F)F)cc4)CC3)cc2)Cn2cc([N+](=O)[O-])nc2O1 |
| 153 to 156 | Cc1nnsc1C(=O)Nc1ccc(-n2nc(C3CC3)c(Cl)c2C2CC2)c(F)c1 |
| 94 to 97 | CCN1c2ncc(CCc3ccncc3)cc2C(=O)N(C)c2ccc(N)nc21 |
| 178 to 179 | CC(=O)c1ccc2c(c1)C(C(=O)Nc1cccc(C(=O)Nc3ccccc3)c1)C(=O)N2C (stereo not given) |
| 92 to 93 | COc1ccc(Br)c(C=O)c1OC |
| 105 to 106 | CCCCN(Cc1ccc(-c2ccccc2-c2nnn[nH]2)cc1)c1nnn(CC(C)C)c1C(=O)O |
| 244 to 246 | O=[N+]([O-])c1ccc(Oc2ccc3cc(Oc4ccc([N+](=O)[O-])c(O)c4)ccc3c2)cc1O |
| 122 to 129 | O=C(Cn1ccnc1)c1ccc(Cl)cn1 |
| 124 to 126 | Cc1c(C)n(CC=Cc2ccccc2)c2c(OCc3ccc(F)cc3)nncc12 |

| Compound | melting point [°C] |
| --- | --- |
| C=Cc1ncn2c1CN(C)C(=O)c1c(Cl)cccc1-2 | 205 to 207 |
| CNC(=O)ON=C(C)CN(c1c(C)cccc1C)S(C)(=O)=O | 130 to 134 |
